Residues, ends and D or L forms follow the SMILES beside them.
Assay: Body weight in chronic contact dermatitis mouse model
Type: in vivo
Conditions: DNCB mice
Procedure: The 6-week-old male […] mouse used in the animal experiment is a species of ‘SKH-1 hairless’ and barely has body hair to ensure convenience in intuitively observing the skin condition, of which was divided, for experiment, into 3 groups out of 18 individuals in total (6 individuals for a negative control group/6 individuals for a positive control group/6 individuals for a novel peptide treated group).
After an adaptation period of about 2 weeks, 100 μL of 2,4-dinitrochlorobenzene (DNCB) prepared at a concentration of 1% in solution of acetone: olive oil (3:1) was applied onto the dorsal skin of mice at a certain time every day. After 1 week, if the incidence of contact dermatitis was observed, the DNCB was lowered to 0.5% and applied by 100 μL every 2 days, and the novel peptide was prepared in normal saline at a concentration of 1 mg/ml and applied by 100 μg daily for 3 weeks, while skin condition was observed every week during the experiment.

Structure (SMILES): C[C@@H](O)[C@H](NC(=O)[C@@H](N)CCCCN)C(=O)N[C@@H](Cc1ccccc1)C(=O)N[C@@H](CCCNC(=N)N)C(=O)O [novel peptide, KTFR] (H-KTFR-OH)
- changes in the body weight (100 μg applied daily for 3 weeks): no significant changes in the body weight
- stress induced by the peptide (concluded from body weight): no stress was induced
